ChEMBL document CHEMBL1201862, “PubChem BioAssay data set” (2004)
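In this assay, cells in 96-well plates receive the compound at five concentrations for 48 hours. Endpoints are linearly interpolated between the surrounding concentrations. At the GI50, growth is halved.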 Activity calls are given as the source filed them. Cut-off read from the data, not from the text of the source: active = GI50 up to about 1.1 µM and inactive = higher.

Legend:
Experiment in all cases: inhibition of tumour cell growth, NCI panel, 48 h
U-251 = tested on: U-251
IGROV-1 = tested on: IGROV-1
HCT-116 = tested on: HCT-116
EKVX = tested on: EKVX
RPMI-8226 = tested on: RPMI-8226
HT-29 = tested on: HT-29
KM12 = tested on: KM12
SW-620 = tested on: SW-620
TK-10 = tested on: TK-10
DU-145 = tested on: DU-145
PC-3 = tested on: PC-3
MCF7 = tested on: MCF7
SK-MEL-2 = tested on: SK-MEL-2
SF-539 = tested on: SF-539
OVCAR-5 = tested on: OVCAR-5
MDA-N = tested on: MDA-N
786-0 = tested on: 786-0
SF-268 = tested on: SF-268
UO-31 = tested on: UO-31
HCC 2998 = tested on: HCC 2998

SMILES | GI50 (U-251) | GI50 (IGROV-1) | GI50 (HCT-116) | GI50 (EKVX) | GI50 (RPMI-8226) | GI50 (HT-29) | GI50 (KM12) | GI50 (SW-620) | GI50 (TK-10) | GI50 (DU-145) | GI50 (PC-3) | GI50 (MCF7) | GI50 (SK-MEL-2) | GI50 (SF-539) | GI50 (OVCAR-5) | GI50 (MDA-N) | GI50 (786-0) | GI50 (SF-268) | GI50 (UO-31) | GI50 (HCC 2998)
NC(Cc1cc(Br)c(O)c(Br)c1)C(=O)O (stereo not given) | > 100 µM (inactive) | > 100 µM (inactive) | > 100 µM (inactive) | > 100 µM (inactive) | > 100 µM (inactive) | > 100 µM (inactive) | > 100 µM (inactive) | > 100 µM (inactive) | > 100 µM (inactive) | > 100 µM (inactive) | > 100 µM (inactive) | > 100 µM (inactive) | > 100 µM (inactive) | > 100 µM (inactive) | > 100 µM (inactive) | > 100 µM (inactive) | > 100 µM (inactive) | > 100 µM (inactive) |  | 
O=C(O)CSCC(=O)O | > 100 µM (inactive) | > 100 µM (inactive) | > 100 µM (inactive) | > 100 µM (inactive) |  | > 100 µM (inactive) | > 100 µM (inactive) | > 100 µM (inactive) | > 100 µM (inactive) | > 100 µM (inactive) | > 100 µM (inactive) |  | > 100 µM (inactive) |  | > 100 µM (inactive) | > 100 µM (inactive) | > 100 µM (inactive) | > 100 µM (inactive) | > 100 µM (inactive) | 
COCC1OC([P+](c2ccccc2)(c2ccccc2)c2ccccc2)CC(OC)C1OC (stereo not given) | 35.6 µM (inactive) |  | 32.6 µM (inactive) | 42.6 µM (inactive) |  |  | 34.5 µM (inactive) | 35.5 µM (inactive) | 55.7 µM (inactive) | 32.2 µM (inactive) | 30.5 µM (inactive) | 38 µM (inactive) | 24.1 µM (inactive) |  | 51.5 µM (inactive) | 37.2 µM (inactive) | 53.2 µM (inactive) |  | > 100 µM (inactive) | 
C1=N\CCNCCNCC/N=C\c2ccc(cc2)OCc2cccc(n2)COc2ccc/1cc2 | > 100 µM (inactive) | > 100 µM (inactive) | > 100 µM (inactive) | > 100 µM (inactive) | 53.6 µM (inactive) | > 100 µM (inactive) | 33.2 µM (inactive) | 95.5 µM (inactive) |  | > 100 µM (inactive) | 79.4 µM (inactive) | 29.8 µM (inactive) | > 100 µM (inactive) | > 100 µM (inactive) | > 100 µM (inactive) | > 100 µM (inactive) | > 100 µM (inactive) | 83.6 µM (inactive) | > 100 µM (inactive) | 
Cc1ccc2c(=O)c(-c3nnc(NC4CCCCC4)s3)c[nH]c2n1 | > 100 µM (inactive) | > 100 µM (inactive) | > 100 µM (inactive) | > 100 µM (inactive) | > 100 µM (inactive) | > 100 µM (inactive) | > 100 µM (inactive) | > 100 µM (inactive) | > 100 µM (inactive) | > 100 µM (inactive) | > 100 µM (inactive) | > 100 µM (inactive) | > 100 µM (inactive) |  | > 100 µM (inactive) | 81.7 µM (inactive) | > 100 µM (inactive) | > 100 µM (inactive) | > 100 µM (inactive) | 
CC(=N\c1ccncc1)/C(C)=N/c1ccncc1 | 24.5 µM (inactive) | 17.3 µM (inactive) | 29.8 µM (inactive) | 20.7 µM (inactive) | 21.1 µM (inactive) | 19 µM (inactive) | 38.3 µM (inactive) | 30.8 µM (inactive) | 35.8 µM (inactive) | 53.6 µM (inactive) | 19.3 µM (inactive) | 16.7 µM (inactive) | 20.7 µM (inactive) | 18.7 µM (inactive) | 17 µM (inactive) |  | 34.7 µM (inactive) | 30.4 µM (inactive) | 17 µM (inactive) | 19 µM (inactive)
CC1CC(N)=Nc2ccccc2N1Cc1ccccc1 (stereo not given) | 15.2 µM (inactive) | 7.6 µM (inactive) | 29.3 µM (inactive) | 22.1 µM (inactive) | 5 µM (inactive) | 14.4 µM (inactive) | 15 µM (inactive) | 12.6 µM (inactive) | 15 µM (inactive) | 16.6 µM (inactive) | 14.2 µM (inactive) |  | 14.3 µM (inactive) |  | 31.8 µM (inactive) | 18 µM (inactive) | 29.4 µM (inactive) | 13.6 µM (inactive) | 21.9 µM (inactive) | 
c1ccc(COC2NCCN2Cc2ccccc2)cc1 (stereo not given) | > 100 µM (inactive) | > 100 µM (inactive) | > 100 µM (inactive) | 51.2 µM (inactive) | > 100 µM (inactive) | > 100 µM (inactive) | > 100 µM (inactive) | > 100 µM (inactive) | > 100 µM (inactive) | > 100 µM (inactive) | > 100 µM (inactive) | > 100 µM (inactive) | > 100 µM (inactive) | > 100 µM (inactive) | > 100 µM (inactive) | > 100 µM (inactive) | > 100 µM (inactive) | > 100 µM (inactive) | > 100 µM (inactive) | 
CC1=C2CN(C(=O)OCC(C)C)CCC2C2=C(C(=O)c3ccccc3C2=O)C1C (stereo not given) |  | > 10 µM (inactive) |  | > 10 µM (inactive) | > 10 µM (inactive) | > 10 µM (inactive) | > 10 µM (inactive) | > 10 µM (inactive) | > 10 µM (inactive) | > 10 µM (inactive) | > 10 µM (inactive) | > 10 µM (inactive) |  |  |  | > 10 µM (inactive) | > 10 µM (inactive) | > 10 µM (inactive) |  | > 10 µM (inactive)
CC1N(O)C(c2ccccc2)C(c2ccccc2)=[N+]1[O-] (stereo not given) | > 100 µM (inactive) | > 100 µM (inactive) | > 100 µM (inactive) | > 100 µM (inactive) |  | > 100 µM (inactive) | > 100 µM (inactive) | > 100 µM (inactive) | > 100 µM (inactive) |  | > 100 µM (inactive) | > 100 µM (inactive) | > 100 µM (inactive) | > 100 µM (inactive) | > 100 µM (inactive) | > 100 µM (inactive) | > 100 µM (inactive) |  | > 100 µM (inactive) | > 100 µM (inactive)
COc1cc(C2C(Cl)C(=O)N2c2ccc(Br)cc2)cc(I)c1O (stereo not given) | > 100 µM (inactive) | 1.54 µM (inactive) | 40.3 µM (inactive) | 20.7 µM (inactive) | 33.1 µM (inactive) | 87.1 µM (inactive) | 37.3 µM (inactive) | > 100 µM (inactive) | 90.8 µM (inactive) | > 100 µM (inactive) | > 100 µM (inactive) | 87.9 µM (inactive) | 65.8 µM (inactive) | > 100 µM (inactive) | 87.7 µM (inactive) | 36.6 µM (inactive) | > 100 µM (inactive) | 89.1 µM (inactive) | 31.1 µM (inactive) | 
CCCCCCCC(=O)NC(C)(C)C(=O)NCC(=O)NC(CC(C)C)C(=O)NC(C)(C)C(=O)NCC(=O)NCC(=O)NC(CC(C)C)C(=O)NC(C)(C)C(=O)NCC(=O)NC(C(=O)NC(CO)CC(C)C)C(C)CC (stereo not given) | 2.39 µM (inactive) | 3.84 µM (inactive) | 3.78 µM (inactive) | 3.63 µM (inactive) | 0.935 µM (active) | 4.05 µM (inactive) | 1.41 µM (inactive) | 4.02 µM (inactive) | 4.66 µM (inactive) | 4.55 µM (inactive) | 3.77 µM (inactive) |  | 2.82 µM (inactive) |  | 3.66 µM (inactive) | 4 µM (inactive) | 4.61 µM (inactive) | 4.11 µM (inactive) | 4.3 µM (inactive) | 4.29 µM (inactive)
COc1ccc2c(c1)N=C1CSC(c3c(Cl)cccc3[N+](=O)[O-])N1C2 (stereo not given) | 54.2 µM (inactive) | 62.8 µM (inactive) | 35.5 µM (inactive) | 40.3 µM (inactive) | 30 µM (inactive) | 38.2 µM (inactive) | 33.5 µM (inactive) | 36.6 µM (inactive) | 48.4 µM (inactive) |  | 40.6 µM (inactive) | 30.1 µM (inactive) | 35.4 µM (inactive) | 37.2 µM (inactive) | > 100 µM (inactive) | 29.8 µM (inactive) | 51.5 µM (inactive) | 63.4 µM (inactive) | 30.8 µM (inactive) | 21.4 µM (inactive)
COc1cc2c(cc1O)-c1c(OC)c(O)cc3c1C(C2)N(C)CC3 (stereo not given) | > 100 µM (inactive) | > 100 µM (inactive) | > 100 µM (inactive) | > 100 µM (inactive) | > 100 µM (inactive) | > 100 µM (inactive) | > 100 µM (inactive) | > 100 µM (inactive) | > 100 µM (inactive) | > 100 µM (inactive) | > 100 µM (inactive) | > 100 µM (inactive) | > 100 µM (inactive) | > 100 µM (inactive) | > 100 µM (inactive) | > 100 µM (inactive) | > 100 µM (inactive) | > 100 µM (inactive) | > 100 µM (inactive) | 
N#CC(C/C=C/c1ccccc1)NNC(=O)c1c(Cl)c(Cl)c(Cl)c(Cl)c1-c1nc2cc(C(=O)c3ccccc3)ccc2[nH]1 (stereo not given) | 12.5 µM (inactive) | 18.2 µM (inactive) | 20 µM (inactive) | 15.1 µM (inactive) | 16.3 µM (inactive) | 16.1 µM (inactive) | 23.4 µM (inactive) | 22.8 µM (inactive) | 22.8 µM (inactive) | 18.5 µM (inactive) | 10.9 µM (inactive) | 7.94 µM (inactive) | 17.5 µM (inactive) | 9.86 µM (inactive) | 28.9 µM (inactive) | 3.24 µM (inactive) | 16.4 µM (inactive) |  | 21.5 µM (inactive) | 
CC(C)[C@H]1C(=O)O[B@-](F)(c2ccccc2)/[N+]1=C\N(C)C | > 100 µM (inactive) | > 100 µM (inactive) | > 100 µM (inactive) | > 100 µM (inactive) | > 100 µM (inactive) | > 100 µM (inactive) |  | > 100 µM (inactive) | > 100 µM (inactive) | > 100 µM (inactive) | > 100 µM (inactive) | > 100 µM (inactive) |  |  | > 100 µM (inactive) | > 100 µM (inactive) | > 100 µM (inactive) | > 100 µM (inactive) | > 100 µM (inactive) | > 100 µM (inactive)
